In PubChem BioAssay (NCI):
Where “and” joins values, the source holds several entries; their conditions need not be identical. Equal entries are not always repeated.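 Step 1: Grow cells in 96-well plates. Step 2: Expose to compound for 48 hours at 5 concentrations. Step 3: Interpolate endpoints linearly; if unreached, use highest concentration. Here, GI50 denotes the concentration required for 50% inhibition of growth. TGI: concentration producing complete growth inhibition.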

Columns and labels:
Experiment in all cases: NCI anticancer screen, dose series, 48 h
KM12 colon = tested on: KM12 colon
NCI-H460 lung = tested on: NCI-H460 lung
RPMI-8226 leukemia = tested on: RPMI-8226 leukemia
SF-268 CNS = tested on: SF-268 CNS
SK-MEL-2 melanoma = tested on: SK-MEL-2 melanoma
SK-MEL-5 melanoma = tested on: SK-MEL-5 melanoma
SW-620 colon = tested on: SW-620 colon
UO-31 renal = tested on: UO-31 renal
OVCAR-4 ovarian = tested on: OVCAR-4 ovarian
MDA-MB-435 = tested on: MDA-MB-435

Row | SMILES | TGI (KM12 colon) | TGI (NCI-H460 lung) | TGI (RPMI-8226 leukemia) | TGI (SF-268 CNS) | TGI (SK-MEL-2 melanoma) | TGI (SK-MEL-5 melanoma) | TGI (SW-620 colon) | TGI (UO-31 renal) | TGI (OVCAR-4 ovarian) | GI50 (KM12 colon) | GI50 (MDA-MB-435) | TGI (MDA-MB-435) | GI50 (NCI-H460 lung) | GI50 (OVCAR-4 ovarian) | GI50 (SF-268 CNS) | GI50 (SK-MEL-2 melanoma) | GI50 (SK-MEL-5 melanoma) | GI50 (SW-620 colon) | GI50 (RPMI-8226 leukemia) | GI50 (UO-31 renal)
1 | CC(=O)Nc1ccc(/C=C/C(=O)c2sc(C(N)=S)nc2C)cc1 | > 100 µM | > 100 µM | > 100 µM | > 100 µM | > 100 µM | > 100 µM | > 100 µM | > 100 µM |  |  |  |  |  |  |  |  |  |  |  | 
2 | COc1ccccc1NC(=O)C1=C(C)NC(C)=C(C(=O)Nc2ccccc2OC)C1c1ccccc1OC | > 100 µM | > 100 µM | > 100 µM | > 100 µM | > 100 µM | > 100 µM | > 100 µM | > 100 µM | > 100 µM |  |  |  |  |  |  |  |  |  |  | 
3 | Cc1c(Cl)ccc2c1NC(=O)C2(O)C1Cc2ccccc2C1=O (configuration not stated) | > 100 µM | > 100 µM | > 100 µM | > 100 µM | > 100 µM | > 100 µM | > 100 µM | > 100 µM | > 100 µM |  |  |  |  |  |  |  |  |  |  | 
4 | COC(=O)C(=O)C(C(=O)C(=O)Nc1cc([N+](=O)[O-])ccc1[N+](=O)[O-])c1nc2ccc(C(=O)c3ccccc3)cc2[nH]c1=O (configuration not stated) | > 100 µM | > 100 µM | 62.4 µM | > 100 µM | > 100 µM | 45.9 µM | > 100 µM | 67.5 µM | > 100 µM |  |  |  |  |  |  |  |  |  |  | 
5 | CC[C@H](C)C(=O)O[C@H]1CCC=C2C=C[C@H](C)C(CCC3C[C@@H](O)CC(=O)O3)[C@H]21 (some centres not stated) | > 100 µM | > 100 µM |  | > 100 µM | > 100 µM | 71.4 µM | > 100 µM |  | > 100 µM | 45.6 µM | 39.3 µM | > 100 µM | 4.9 µM | 22.7 µM | 1.94 µM | 6.98 µM | 3.78 µM | 12 µM |  | 
6 | O=C1C=CC2(C=C1)CCN=c1c(O)c3c(c(O)c12)=NC=N3 | 29.1 µM and > 100 µM | 30 µM and > 100 µM | 42.3 µM and > 100 µM | 26.8 µM and > 100 µM | 16 µM and > 100 µM |  | 32.2 µM and > 100 µM | 30.5 µM and > 100 µM | 29.7 µM and > 100 µM | 14.4 µM and > 100 µM |  |  | 12.2 µM and > 100 µM | 15.9 µM and > 100 µM |  |  |  | 10.1 µM and > 100 µM | 12.2 µM and > 100 µM | 14.5 µM and > 100 µM
7 | Clc1ccc(CO/N=C(\Cn2ccnc2)c2ccc(Cl)cc2Cl)c(Cl)c1 |  |  | 4.52 µM |  | 3.92 µM | 3.03 µM | 3.2 µM | 2.79 µM | 2.67 µM |  | 1.66 µM | 3.19 µM |  | 1.36 µM |  | 2.06 µM | 1.63 µM | 1.55 µM | 1.45 µM | 1.34 µM
8 | CCN(CC)c1ccc2c(c1)N=C1N=CC=CN1C2(c1ccc(N(C)C)cc1)c1ccc(N(C)C)cc1 | 15.6 µM | 22.2 µM | 8.1 µM | 27.3 µM | 31.1 µM | 26.7 µM |  | 22 µM |  |  |  |  |  |  |  |  |  |  |  | 
9 | O=C(NCC#CCO)C(F)(F)F | > 100 µM | > 100 µM |  | > 100 µM | > 100 µM | > 100 µM | > 100 µM | > 100 µM | > 100 µM |  |  |  |  |  |  |  |  |  |  | 
10 | Nc1nc(N)c(-c2ccc(Cl)cc2)c(CCC(=O)Nc2cccc(C(F)(F)F)c2)n1 | > 100 µM | > 100 µM |  | > 100 µM | > 100 µM | > 100 µM | > 100 µM | > 100 µM | > 100 µM |  |  |  |  |  |  |  |  |  |  | 
